Consider 26 compounds from patent US10793563B2, “GCN2 inhibitors and uses thereof” (Merck Patent GmbH, priority 2018, dated 2020).

In assay [1] the target is GCN2 kinase (Homo sapiens (Human), UniProt Q9P2K8). As to the kind of experiment: GCN2 Enzyme Inhibition Assay (Transcreener ADP2 fluorescence polarization). In kind it is biochemical. The following applies: 280 μM ATP, 200 μM (RS)7 peptide, 4 nM GCN2, 25° C.; for Ki: Ki(app). The gist of the method: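 At 25 °C, GCN2 kinase (typical final concentration 4 nM) and (RS)7 peptide in Tris-HCl pH 7.5 buffer with MgCl2, NaCl and DTT were preincubated with compound for 10 min, then ATP was added for a 1 h reaction. ADP was read by FP with antibody/Alexa633 tracer. Non-linear tight-binding analysis gave IC50 and apparent Ki.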
GCN2 kinase, sequence (Q9P2K8 whole entry): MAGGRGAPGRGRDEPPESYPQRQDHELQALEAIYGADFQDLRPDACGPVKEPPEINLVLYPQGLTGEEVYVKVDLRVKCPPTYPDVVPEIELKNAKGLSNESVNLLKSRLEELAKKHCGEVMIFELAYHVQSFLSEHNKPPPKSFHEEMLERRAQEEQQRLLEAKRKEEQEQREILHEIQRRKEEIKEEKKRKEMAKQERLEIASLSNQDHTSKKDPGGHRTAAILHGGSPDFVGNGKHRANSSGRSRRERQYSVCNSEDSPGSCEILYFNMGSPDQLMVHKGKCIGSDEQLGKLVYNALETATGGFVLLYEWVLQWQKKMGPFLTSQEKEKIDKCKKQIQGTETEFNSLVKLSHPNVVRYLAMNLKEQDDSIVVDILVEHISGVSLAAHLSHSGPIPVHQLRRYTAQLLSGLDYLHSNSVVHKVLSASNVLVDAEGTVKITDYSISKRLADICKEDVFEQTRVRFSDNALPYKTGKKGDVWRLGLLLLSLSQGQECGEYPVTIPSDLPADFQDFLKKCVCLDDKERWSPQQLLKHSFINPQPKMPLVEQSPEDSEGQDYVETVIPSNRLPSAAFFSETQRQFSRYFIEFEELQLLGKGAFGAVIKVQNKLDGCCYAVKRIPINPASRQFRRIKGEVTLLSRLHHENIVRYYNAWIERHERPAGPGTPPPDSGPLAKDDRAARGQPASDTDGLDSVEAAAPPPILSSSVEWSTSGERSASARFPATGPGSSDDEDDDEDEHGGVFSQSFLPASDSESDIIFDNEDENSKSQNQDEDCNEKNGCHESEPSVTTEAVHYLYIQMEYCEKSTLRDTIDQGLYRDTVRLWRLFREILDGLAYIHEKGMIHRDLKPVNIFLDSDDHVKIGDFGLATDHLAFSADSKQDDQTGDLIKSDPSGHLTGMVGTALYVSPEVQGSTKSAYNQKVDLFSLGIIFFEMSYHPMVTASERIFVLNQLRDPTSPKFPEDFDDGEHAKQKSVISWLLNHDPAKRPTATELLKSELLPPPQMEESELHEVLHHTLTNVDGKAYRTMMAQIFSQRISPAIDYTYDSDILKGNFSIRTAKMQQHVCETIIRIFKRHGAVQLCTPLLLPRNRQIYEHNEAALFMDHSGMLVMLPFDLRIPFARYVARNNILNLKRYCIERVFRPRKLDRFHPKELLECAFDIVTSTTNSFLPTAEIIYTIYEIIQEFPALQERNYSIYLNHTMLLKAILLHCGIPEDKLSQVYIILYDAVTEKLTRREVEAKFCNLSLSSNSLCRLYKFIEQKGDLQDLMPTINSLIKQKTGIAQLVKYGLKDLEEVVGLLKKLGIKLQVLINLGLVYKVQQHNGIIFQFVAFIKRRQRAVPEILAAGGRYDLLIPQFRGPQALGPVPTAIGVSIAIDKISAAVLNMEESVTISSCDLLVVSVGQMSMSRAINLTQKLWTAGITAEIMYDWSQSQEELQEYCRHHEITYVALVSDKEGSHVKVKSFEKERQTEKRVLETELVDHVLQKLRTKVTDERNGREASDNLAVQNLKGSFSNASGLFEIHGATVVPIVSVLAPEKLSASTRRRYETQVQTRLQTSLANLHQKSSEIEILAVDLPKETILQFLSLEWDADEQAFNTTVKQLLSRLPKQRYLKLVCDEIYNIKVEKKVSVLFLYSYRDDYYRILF

Assay [2] deals with intracellular GCN2 (phosphorylation of the GCN2 substrate eIF2α) (Homo sapiens (Human), UniProt Q9P2K8). As to the kind of experiment: GCN2 Cellular Inhibition Assay (AlphaScreen SureFire P-eIF2α Ser51, borrelidin-treated U2OS cells). It counts as cell-based. The following applies: 10 μM borrelidin, 1 h, phosphorylated eIF2α Ser51, read-out: GCN2 Biomarker (IC50). The gist of the method: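 Phospho-eIF2α (Ser51) measured by AlphaScreen SureFire in lysates of U2OS cells stimulated 1 h at 37 °C with 10 μM borrelidin alongside compound, 4-fold dilutions from 40 μM. Inhibition expressed as percent relative to borrelidin-alone controls.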
intracellular GCN2 (phosphorylation of the GCN2 substrate eIF2α), sequence (Q9P2K8 whole entry): as above

For `C[C@H]1CN(c2nccc(-c3cnc4ccc(C(F)(F)F)cn34)n2)CC(c2cc[nH]n2)O1` (stereo in doubt) [I-138, (2S,6R)-2-methyl-6-(1H-pyrazol-3-yl)-4-(4-(6-(trifluoromethyl)imidazo[1,2-a]pyridin-3-yl)pyrimidin-2-yl)morpholine], the IC50 in assay [1] is 10 to 100 nM; in assay [2], less than 500 nM.
The corresponding values for `C[C@@H]1[C@@H](c2cn[nH]c2)N(C2COC2)CCN1c1ccnc(-c2cnc3ccc(C(F)(F)F)cn23)n1` [I-363, 3-(4-((2R,3R)-2-methyl-4-(oxetan-3-yl)-3-(1H-pyrazol-4-yl)piperazin-1-yl)pyrimidin-2-yl)-6-(trifluoromethyl)imidazo[1,2-a]pyridine] are 100 to 1000 nM and 500 to 5000 nM.
In the case of `C[C@@H]1C[C@H](N=S(C)(C)=O)CN(c2ccnc(-c3cnc4ccc(C#N)cn34)n2)C1` [I-262, 3-(4-((3S,5R)-3-((dimethyl(oxo)-λ6-sulfaneylidene)amino)-5-methylpiperidin-1-yl)pyrimidin-2-yl)imidazo[1,2-a]pyridine-6-carbonitrile], the IC50 was 10 to 100 nM in assay [1] and greater than 5000 nM in assay [2].
The corresponding values for `Cc1oncc1[C@@H]1CN(c2ccnc(-c3cnc4ccc(C(F)(F)F)cn34)n2)C[C@@H](C)O1` [I-343, (2R,6R)-2-methyl-6-(5-methylisoxazol-4-yl)-4-(2-(6-(trifluoromethyl)imidazo[1,2-a]pyridin-3-yl)pyrimidin-4-yl)morpholine] are 100 to 1000 nM and 500 to 5000 nM.
Regarding `CC(C)n1cc(C(=O)N2CCN(c3ccnc(-c4cnc5ccc(C(F)(F)F)cn45)n3)CC2c2cn[nH]c2)cn1` (stereo not shown) [I-391, (2-(1H-pyrazol-4-yl)-4-(2-(6-(trifluoromethyl)imidazo[1,2-a]pyridin-3-yl)pyrimidin-4-yl)piperazin-1-yl)(1-isopropyl-1H-pyrazol-4-yl)methanone], the values for the IC50 in assay [1] and in assay [2] were 100 to 1000 nM and 500 to 5000 nM, respectively.
Consider `Fc1cc2ncc(-c3nccc(N4CCCC(c5cn[nH]c5)C4)n3)n2cc1Br` (stereo not shown) [I-326, 3-(4-(3-(1H-pyrazol-4-yl)piperidin-1-yl)pyrimidin-2-yl)-6-bromo-7-fluoroimidazo[1,2-a]pyridine], for which the IC50 in assay [1] is less than 10 nM; in assay [2], less than 500 nM.
As to `C[C@@H]1C[C@H](N=S(C)(C)=O)CN(c2ccnc(-c3cnc4ccc(OC(F)F)cn34)n2)C1` [I-291, dimethyl(((3 S,5R)-5-methyl-1-(2-(6-(difluoromethoxy)imidazo[1,2-a]pyridin-3-yl)pyrimidin-4-yl)piperidin-3-yl)imino)-λ6-sulfanone], the IC50 lay within 10 to 100 nM in assay [1] and 500 to 5000 nM in assay [2].
On to `Cc1[nH]ncc1[C@H]1C[C@@H](N=S(C)(C)=O)CN(c2ccnc(-c3cnc4ccc(C(F)(F)F)cn34)n2)C1` [I-342, dimethyl(((3R,5R)-5-(5-methyl-1H-pyrazol-4-yl)-1-(2-(6-(trifluoromethyl)imidazo[1,2-a]pyridin-3-yl)pyrimidin-4-yl)piperidin-3-yl)imino)-λ6-sulfanone], for which the results for the IC50 in assay [1] and in assay [2] were 10 to 100 nM and less than 500 nM, respectively.
On to `CC1CCC(C(=O)O)CN1c1ccnc(-c2cnc3ccc(C(F)(F)F)cn23)n1` (stereo not shown) [I-201, 6-methyl-1-(2-(6-(trifluoromethyl)imidazo[1,2-a]pyridin-3-yl)pyrimidin-4-yl)piperidine-3-carboxylic acid], for which the IC50 in assay [1] lay in the range of 10 to 100 nM; in assay [2], 500 to 5000 nM.
For the compound `FC(F)(F)c1ccc2ncc(-c3nccc(N4CCN[C@H](c5cn[nH]c5)C4)n3)n2c1` [I-532, (R)-3-(4-(3-(1H-pyrazol-4-yl)piperazin-1-yl)pyrimidin-2-yl)-6-(trifluoromethyl)imidazo[1,2-a]pyridine], the IC50 in assay [1] was 10 to 100 nM; in assay [2], 500 to 5000 nM.
`C[C@@H]1CN(c2nccc(-c3cnc4cc(F)c(Cl)cn34)n2)C[C@H](c2cn[nH]c2)O1` [I-273, (2R,6S)-4-(4-(6-chloro-7-fluoroimidazo[1,2-a]pyridin-3-yl)pyrimidin-2-yl)-2-methyl-6-(1H-pyrazol-4-yl)morpholine]: the IC50 in assay [1] is less than 10 nM; in assay [2], less than 500 nM.
For the compound `FC(F)c1ccc2ncc(-c3nsc(N4CCOC(c5cn[nH]c5)C4)n3)n2c1` (stereo not shown) [I-105, 4-(3-(6-(difluoromethyl)imidazo[1,2-a]pyridin-3-yl)-1,2,4-thiadiazol-5-yl)-2-(1H-pyrazol-4-yl)morpholine], the Ki in assay [1] fell in the range of 10 to 100 nM. The IC50 in assay [2] was greater than 5000 nM.
Regarding `O=C(C1CC1(F)F)N1CCN(c2ccnc(-c3cnc4ccc(C(F)(F)F)cn34)n2)CC1c1cn[nH]c1` (stereo not shown) [I-400, (2-(1H-pyrazol-4-yl)-4-(2-(6-(trifluoromethyl)imidazo[1,2-a]pyridin-3-yl)pyrimidin-4-yl)piperazin-1-yl)(2,2-difluorocyclopropyl)methanone], the results for the IC50 in assay [1] and in assay [2] were 10 to 100 nM and 500 to 5000 nM, respectively.
For `Cc1cc(-c2cnc3ccc(Cl)cn23)nc(N2C[C@@H](C)O[C@@H](c3c[nH]nc3C)C2)n1` [I-222, (2R,6S)-4-(4-(6-chloroimidazo[1,2-a]pyridin-3-yl)-6-methylpyrimidin-2-yl)-2-methyl-6-(5-methyl-1H-pyrazol-4-yl)morpholine], the IC50 in assay [1] was 10 to 100 nM; in assay [2], less than 500 nM.
Regarding `FC(F)(F)c1ccc2ncc(-c3ccnc(N4CCN(C5CC5)[C@H](c5cn[nH]c5)C4)n3)n2c1` [I-508, 3-{2-[(R)-4-Cyclopropyl-3-(1H-pyrazol-4-yl)-piperazin-1-yl]-pyrimidin-4-yl}-6-trifluoromethyl-imidazo[1,2-a]pyridine], the IC50 is less than 10 nM in assay [1] and less than 500 nM in assay [2].
Regarding `FC(F)(F)c1ccc2ncc(-c3nccc(N4CCN(Cc5ncc[nH]5)C(c5cn[nH]c5)C4)n3)n2c1` (stereo not shown) [I-371, 3-(4-(4-((1H-imidazol-2-yl)methyl)-3-(1H-pyrazol-4-yl)piperazin-1-yl)pyrimidin-2-yl)-6-(trifluoromethyl)imidazo[1,2-a]pyridine], the IC50 in assay [1] is less than 10 nM; in assay [2], 500 to 5000 nM.
For the compound `NC(=O)[C@H]1CCCN(c2nccc(-c3cnc4ccc(Cl)cn34)n2)C1` [I-183, (S)-1-(4-(6-chloroimidazo[1,2-a]pyridin-3-yl)pyrimidin-2-yl)piperidine-3-carboxamide], the IC50 in assay [1] is 10 to 100 nM; in assay [2], less than 500 nM.
For the compound `CS(=O)(=O)NCC1CCCN(c2nsc(-c3cnc4ccc(C(F)(F)F)cn34)n2)C1` (stereo not shown) [I-110, N-((1-(5-(6-(trifluoromethyl)imidazo[1,2-a]pyridin-3-yl)-1,2,4-thiadiazol-3-yl)piperidin-3-yl)methyl)methanesulfonamide], in assay [1], the Ki is less than 10 nM. Besides, the IC50 in assay [2] lay in the range of 500 to 5000 nM.
Take `CP(C)(=O)C1CC(c2cn[nH]c2)CN(c2ccnc(-c3cnc4ccc(Cl)cn34)n2)C1` (stereo not shown) [I-29, 6-Chloro-3-[4-[3-dimethylphosphoryl-5-(1H-pyrazol-4-yl)-1-piperidyl]pyrimidin-2-yl]imidazo[1,2-a]pyridine]: the Ki in assay [1] was less than 10 nM. In addition, the IC50 in assay [2] was greater than 5000 nM.
The corresponding values for `CS(=O)(=O)NCC1CCN(c2ccnc(-c3cnc4cc(F)c(Br)cn34)n2)C1` (stereo not shown) [I-25, N-[[1-[2-(6-Bromo-7-fluoro-imidazo[1,2-a]pyridin-3-yl)pyrimidin-4-yl]pyrrolidin-3-yl]methyl]methanesulfonamide] are less than 10 nM and 500 to 5000 nM.
Turning to `C[C@@H]1CN(c2ccnc(-c3cnc4ccc(Cl)cn34)n2)C[C@@H](C(N)=O)O1` [I-177, (2S,6R)-4-(2-(6-chloroimidazo[1,2-a]pyridin-3-yl)pyrimidin-4-yl)-6-methylmorpholine-2-carboxamide], the concentration for half-maximal inhibition (IC50) is 10 to 100 nM in assay [1] and less than 500 nM in assay [2].
As to `Cc1cnc(N2C[C@@H](C)C[C@@H](c3cn[nH]c3)C2)nc1-c1cnc2ccc(Cl)cn12` [I-186, 6-chloro-3-(5-methyl-2-((3S,5S)-3-methyl-5-(1H-pyrazol-4-yl)piperidin-1-yl)pyrimidin-4-yl)imidazo[1,2-a]pyridine], the results for the IC50 in assay [1] and in assay [2] were less than 10 nM and less than 500 nM, respectively.
Take `NC(=O)C1CN(c2ccnc(-c3cnc4ccc(Cl)cn34)n2)CCN1C1CC1` (stereo not shown) [I-286, 4-(2-(6-chloroimidazo[1,2-a]pyridin-3-yl)pyrimidin-4-yl)-1-cyclopropylpiperazine-2-carboxamide]: the IC50 is less than 10 nM in assay [1] and 500 to 5000 nM in assay [2].
The corresponding values for `c1ccc(Oc2ccc3ncc(-c4nccc(N5CCC[C@H](c6cn[nH]c6)C5)n4)n3c2)cc1` [I-398, 2-{6-phenoxyimidazo[1,2-a]pyridin-3-yl}-4-[(3R)-3-(1H-pyrazol-4-yl)piperidin-1-yl]pyrimidine] are 100 to 1000 nM and 500 to 5000 nM.
With `CS(=O)(=O)NC1CC(C(F)(F)F)CN(c2ccnc(-c3cnc4ccc(C(F)F)cn34)n2)C1` (stereo not shown) [I-531, N-(1-(2-(6-(difluoromethyl)imidazo[1,2-a]pyridin-3-yl)pyrimidin-4-yl)-5-(trifluoromethyl)piperidin-3-yl)methanesulfonamide], the IC50 in assay [1] is 10 to 100 nM; in assay [2] it was less than 500 nM.
For `O=C1NCC2CN(c3ccnc(-c4cnc5ccc(C(F)(F)F)cn45)n3)CCN12` (stereo not shown) [I-5, 7-(2-(6-(Trifluoromethyl)imidazo[1,2-a]pyridin-3-yl)pyrimidin-4-yl)hexahydroimidazo[1,5-a]pyrazin-3(2H)-one], the Ki in assay [1] was in the range of 10 to 100 nM. Moreover, the half-inhibitory concentration (IC50) in assay [2] lay within 500 to 5000 nM.
